Legend:
[1] = test system: pancreatin; assay: HCV core2m stress with pancreatin (protease degradation, analytical HPLC); type: in vitro ADME; conditions: for Area after 55 min (HPLC peptide peak) / Area after 125 min (HPLC peptide peak): pancreatin c = 1 mg/ml, 50 μl to 200 μl peptide
From the text: The protease stability of a binding substance according to the invention can be determined by exposing it to e.g. pancreatin, a mixture of frequently occurring proteases (including carboxy-peptidase A and B, trypsin, pepsin, chymotrypsin, elastase) or pronase (including aminopeptidase, carboxypeptidase, alkaline and neutral proteinase). The reduced enzymatic degradation of the binding substance can be determined by HPLC analysis of the appearance of peptide fragments over time.
Experimental procedure for core2m digestion with pancreatin.
Firstly core2m solutions were prepared in distilled water at an approximate c=1-3 mg/ml. These solutions were injected into the analytical HPLC (injection volume=40 μl).
These solutions were now diluted such that the area had to be […] when injected again into the HPLC. e.g. Area of the core2m IV solution was 600 000 on the analytical HPLC for an injection volume of 40 μl. Now two parts of this solution are diluted with one part of distilled water.
In each case 200 μl of these adjusted core2m solutions were admixed with 50 μl pancreatin solution (c=1 mg/ml).
A sample of these solutions was injected into the analytical HPLC after 55 min and after 125 min. As a reference a 200 μl sample of each core2m solution was admixed with 50 μl distilled water and injected into the analytical HPLC.
The percentage degradation of the respective peptide can be determined from the areas of the peptide peaks in the analytical HPLC.
Core2m solutions were adjusted to HPLC areas of 400 000 in 40 μl
Pancreatin solution c = 1 mg/ml in H2 O
200 μl of the adjusted core2m solution was allowed to react with 50

[2] = test system: antibodies which are directed against the core-epitope of the HCV virus; assay: Immunoassay (streptavidin tube, peroxidase/ABTS) with biotinylated peptides; reactivity relative to the natural epitope core2m; type: binding; design: key to serum A rel. reactivity / serum B rel. reactivity: ratio to reference antigen core2m at the same concentration; conditions: for pos. control rel. reactivity: positive control serum, relative to core2m at same concentration; for serum A rel. reactivity: positive serum A; for serum B rel. reactivity: positive serum B
Procedure: Procedure for an immunoassay using biotinylated binding substances according to the invention against antibodies which are directed against the core-epitope of the HCV virus.
In the binding substances that were used one or several CO--NH peptide binding groups were replaced according to the invention (core2mI-core2mVI)compared to the natural epitope "core2m".
20 μl serum was placed in each case in streptavidin-coated ES 22 tubes from the Boehringer Mannheim Company (negative serum, positive serum, positive sera A-C). Then 1000 μl peptide solution (core 2m or core 2m I-VII concentration 100 ng/ml in potassium phosphate buffer 40 mmol/l, pH 7.0) was added by pipette and allowed to stand for 60 min in an ES 22 instrument from the Boehringer Mannheim Company. After 60 min incubation the peptide/serum solution is removed by pipette and the tubes are washed with test wash solution: 40 mmol/l potassium phosphate buffer, pH 7.0. Then 1000 μl peroxidase conjugate solution (peroxidase conjugated to an anti Fcγ antibody, 0.5 U/ml) is added by pipette and incubated for a further 60 min. The conjugate solution is removed by pipette and the tube is washed with washing solution. Afterwards 1000 μl ABTS solution (1.9 mmol/l) is added by pipette and it is incubated for a further 60 min. After 60 min incubation the solution is pipetted from the tube into a photometer and measured at 405 nm. […] The reactivities are derived from the measured result of the immunoassay relative to a standard curve.
The relative concentration used of the peptide antigens I-VI was derived from their HPLC integrals. The reactivity of the antigens I-VI was determined relative to the reference antigen core2m at the same concentration.

Substance	Area after 55 min (HPLC peptide peak) [1]	Area after 125 min (HPLC peptide peak) [1]	% (percentage resistance towards protease degradation) after 55 min ([1]; pancreatin) [%]	resistance towards protease degradation ([1]; pancreatin, 55 min and 125 min) [%]	% (percentage resistance towards protease degradation) after 125 min ([1]; pancreatin) [%]	pos. control rel. reactivity [2]	serum A rel. reactivity [2]	serum B rel. reactivity [2]	Serum C rel. reactivity ([2]; positive serum C)	binding of the artificial epitopes (in words) ([2]; modified epitopes, Example 1)
Bi-XUZUPQDVKFPGGGQIVGGV [core2m, reference compound]	0	0	0	0	0	1.140	1.310	1.170	1.140	
Bi-XUZUPQDVKFP4 QIVGG V [core2mIV]	3057359	2715127	90		80	0.370	0.250	0.210		
Bi-XUZUPQDVKFPGGGQIVI V [core2mI]	3252704	2460332	100		76	1.140	0.621	0.959		bind specifically and selectively
